Results from patent US11897931B2, “MANP analogues” (Mayo Foundation for Medical Education and Research, priority 2016, dated 2024).
Read-outs that look alike come from different tables or passages of the source. Bridges are numbered along the chain shown (N, C = ends). Where no end group is shown, it is not given here. [ ]: non-standard residue; d: D form.

Key:
[1] = system: normal dogs; settings: cited from earlier work
[2] = system: Spontaneously hypertensive rats (SHRs); experiment: Acute IV MANP in spontaneously hypertensive rats: BP, plasma and urinary cGMP, natriuresis; format: in vivo, rat; settings: acute IV administration
Procedure: FIGS. 2A-2E are a series of graphs plotting the effect of MANP, administered intravenously at the indicated doses, on mean arterial pressure (FIG. 2A), cGMP levels in plasma (FIG. 2B) and urine (FIG. 2C), distal tubule sodium reabsorption (FIG. 2D), and urinary sodium excretion (FIG. 2E) in spontaneously hypertensive rats.
Spontaneously hypertensive rats (SHRs) were injected with intravenous (IV) MANP or vehicle, and BP, plasma and urinary cGMP, and natriuretic effects were determined.

[3] = target: T1, pGC-A (Homo sapiens, UniProt P16066); experiment: cGMP generation in HEK293 cells overexpressing pGC-A; format: cell-based
T1 construct: host or cells: HEK293
T1 sequence (P16066 33-1061): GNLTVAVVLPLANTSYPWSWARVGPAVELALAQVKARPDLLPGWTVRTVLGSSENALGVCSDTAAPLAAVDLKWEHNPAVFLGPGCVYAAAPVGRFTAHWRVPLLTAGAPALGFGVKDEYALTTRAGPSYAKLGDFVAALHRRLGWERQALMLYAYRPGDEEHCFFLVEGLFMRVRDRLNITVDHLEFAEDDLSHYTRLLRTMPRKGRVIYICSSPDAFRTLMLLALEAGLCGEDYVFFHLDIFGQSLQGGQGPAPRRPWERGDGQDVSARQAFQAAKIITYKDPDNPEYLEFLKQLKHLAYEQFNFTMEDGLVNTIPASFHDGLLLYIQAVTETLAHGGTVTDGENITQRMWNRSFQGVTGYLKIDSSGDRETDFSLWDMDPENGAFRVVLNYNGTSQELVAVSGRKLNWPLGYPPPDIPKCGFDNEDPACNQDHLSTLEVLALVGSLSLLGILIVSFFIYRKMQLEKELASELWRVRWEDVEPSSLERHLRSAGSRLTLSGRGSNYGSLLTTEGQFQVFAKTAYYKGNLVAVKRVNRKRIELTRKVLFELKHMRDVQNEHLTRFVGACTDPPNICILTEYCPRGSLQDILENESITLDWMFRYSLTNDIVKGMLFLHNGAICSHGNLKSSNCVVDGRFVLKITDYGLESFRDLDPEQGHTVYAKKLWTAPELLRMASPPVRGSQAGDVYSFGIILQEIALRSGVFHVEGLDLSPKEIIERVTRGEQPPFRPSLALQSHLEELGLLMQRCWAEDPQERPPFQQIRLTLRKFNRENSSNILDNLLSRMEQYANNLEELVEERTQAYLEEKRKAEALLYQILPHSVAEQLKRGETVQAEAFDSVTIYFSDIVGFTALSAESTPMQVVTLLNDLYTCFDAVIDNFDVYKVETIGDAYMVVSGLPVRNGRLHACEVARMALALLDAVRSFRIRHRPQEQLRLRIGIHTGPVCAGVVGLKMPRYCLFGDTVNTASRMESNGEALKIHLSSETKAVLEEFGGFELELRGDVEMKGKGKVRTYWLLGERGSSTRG
Procedure: For in vitro studies, five MANP variants were generated that contained substitutions within the N-terminal region. HEK293 cells overexpressing pGC-A were stimulated with MANP or the five variants (10^−8 M), and intracellular cGMP generation was measured.
(§1) Additional in vitro experiments were conducted using an MANP variant having a tryptophan substitution for the leucine at position 2 of MANP (SWLRRSSCFGGRMDRI GAQSGLGCNSFRYRITA REDKQGWA; SEQ ID NO:15). Human pGC-A and pGC-B cDNA clones were purchased from Origene (Rockville, Md.). HEK293 cells were stably transfected with pGC-A or pGC-B cDNA using LIPOFECTAMINE® (Invitrogen; Grand Island, N.Y.). Transfected cells were maintained in Dulbecco's modified Eagle's medium supplemented with 10% fetal bovine serum, 100 U/ml penicillin, 100 […], and 250 ug/ml G418, and were plated in 6-well plates. pGC-A-transfected cells were treated with MANP or MANP2W, while pGC-B-transfected cells were treated with CNP or MANP2W. Cells were incubated in Hank's balanced salt solution (Invitrogen; Carlsbad, Calif.) containing 20 mmol/LN42-hydroxyethyllpiperazine-N′[2-ethanesulfonic acid], 0.1% bovine serum albumin, and 0.5 mmol/L 3-isobutyl-1-methylzanthine (Sigma; St. Louis, Mo.). Treated cells received 10^−6 M, 10^−8 M, or 10^−10 M of MANP, CNP, or MANP2W peptide for 10 minutes. […]

[4] = system: normal canine; experiment: In vivo MANP18 infusion study in a normal canine; settings: normal dog
Procedure: FIGS. 5A-5G are graphs plotting the effect of MANP18 on mean arterial pressure (MAP; FIG. 5A), heart rate (FIG. 5B), pulmonary wedge capillary pressure (PWCP; FIG. 5C), cardiac output (FIG. 5D), renal blood flow (FIG. 5E), urine output (UV; FIG. 5F), and urinary sodium excretion (UNaV; FIG. 5G) in a normal dog. After a baseline (BL) clearance, MANP18 was infused with saline for a total of 45 minutes, which included a 15-minute lead-in period followed by a 30-minute clearance. After the peptide infusion was discontinued, and four, 30-minute clearances were performed [washout (Wo), recovery 1 (Rec1), recovery 2 (Rec2), and recovery 3 (Rec3)].
FIGS. 6A-6G are graphs plotting the effect of MANP18 on plasma cGMP levels (FIG. 6A), urinary cGMP excretion (FIG. 6B), plasma ANP levels (FIG. 6C), urinary ANP excretion (FIG. 6D), plasma aldosterone levels (FIG. 6E), plasma renin activity (PRA; FIG. 6F), and plasma angiotensin II levels (ANGII; FIG. 6G) in a normal dog. Experiments were conducted as described for FIGS. 5A-5G).
In vivo infusion studies were conducted using MANP18 in a normal canine. The night before the study, the dog was fasted. On the day of the experiment, the dog was anesthetized with pentobarbital sodium (15 mg/kg IV), intubated, and mechanically ventilated with supplemental oxygen (Harvard Respirator; Amersham, Mass.) at 12 cycles/minute. The femoral artery was cannulated for MAP monitoring and blood sampling, and the femoral vein was cannulated for saline infusion. Through a left lateral flank incision, the left kidney was exposed and the ureter was cannulated for urine sampling. Supplemental nonhypotensive doses of pentobarbital were administered as needed during the study. After 60 minutes of equilibrium, a baseline clearance was performed. All clearances consisted of urine collection over 30 minutes. Arterial blood sampling and hemodynamic measurements were measured midway through each clearance. After the baseline clearance, MANP18 was infused with saline at a dose of 33 pmol peptide/kg/min. The peptide was infused for a total of 45 minutes, which included a 15-minute lead-in period followed by a 30-minute clearance. The peptide infusion was then discontinued, and four 30-minute clearances were performed (washout, recovery 1, recovery 2, and recovery 3).

[5] = target: T2, pGC-B (Homo sapiens, UniProt P20594); experiment: cGMP generation in HEK293 cells overexpressing pGC-B; format: cell-based; settings: 10^−6 M, 10^−8 M, or 10^−10 M peptide for 10 minutes, FIG. 7B
T2 construct: host or cells: HEK293
T2 sequence (P20594 23-1047): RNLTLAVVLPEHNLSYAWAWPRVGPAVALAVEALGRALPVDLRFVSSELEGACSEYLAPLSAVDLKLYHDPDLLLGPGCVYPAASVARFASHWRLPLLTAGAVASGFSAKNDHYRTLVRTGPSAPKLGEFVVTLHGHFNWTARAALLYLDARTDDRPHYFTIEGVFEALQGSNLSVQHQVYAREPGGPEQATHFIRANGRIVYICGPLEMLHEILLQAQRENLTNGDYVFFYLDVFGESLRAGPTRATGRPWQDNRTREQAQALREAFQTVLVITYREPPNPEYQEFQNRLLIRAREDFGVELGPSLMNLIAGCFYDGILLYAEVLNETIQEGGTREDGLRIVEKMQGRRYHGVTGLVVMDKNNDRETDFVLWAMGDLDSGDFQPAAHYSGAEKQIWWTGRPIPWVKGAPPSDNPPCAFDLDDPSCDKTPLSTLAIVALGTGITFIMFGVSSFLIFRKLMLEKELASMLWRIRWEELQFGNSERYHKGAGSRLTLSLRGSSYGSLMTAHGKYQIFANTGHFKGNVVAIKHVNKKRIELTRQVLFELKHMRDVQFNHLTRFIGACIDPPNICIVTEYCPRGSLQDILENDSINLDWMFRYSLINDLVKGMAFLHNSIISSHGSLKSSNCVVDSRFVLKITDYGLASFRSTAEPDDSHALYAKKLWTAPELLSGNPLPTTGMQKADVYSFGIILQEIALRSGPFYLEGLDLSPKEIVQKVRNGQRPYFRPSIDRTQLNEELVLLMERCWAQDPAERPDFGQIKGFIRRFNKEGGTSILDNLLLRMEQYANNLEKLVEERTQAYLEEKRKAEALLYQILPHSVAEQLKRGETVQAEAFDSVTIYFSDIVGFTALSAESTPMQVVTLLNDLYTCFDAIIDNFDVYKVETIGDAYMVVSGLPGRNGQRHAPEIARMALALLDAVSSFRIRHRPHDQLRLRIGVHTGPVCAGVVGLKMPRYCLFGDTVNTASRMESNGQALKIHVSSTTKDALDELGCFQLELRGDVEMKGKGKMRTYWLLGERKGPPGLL
Procedure: as §1, with “minutes. After treatment, the cells were lysed in 300 ul 6% ice cold TCA and sonicated for 10 minutes, and the cell lysates were then centrifuged at 4° C., 12,000 g for 10 minutes.” for “minutes.”

[6] = infusion of a high dose, compared to high dose of ANP

In the case of “SLRRSSCFGGRMDRIGAQSGLGCNSFRY (listed as Homo sapiens) [ANP, endogenous human mature atrial natriuretic peptide]”, the “glomerular filtration rate (GFR)” value ([1]; infusion of a low dose) is given as “No change” and the “mean arterial pressure (MAP)” value ([1]; infusion of a low dose) is given as “No change”.
With “SLRRSSCFGGRMDRIGAQSGLGCNSFRYRITAREDKQGWA (listed as Homo sapiens) [MANP]” the “BP (mean arterial pressure)” value ([2]; FIG. 2A) was “reduced BP”, the “plasma cGMP generation” value ([2]; FIG. 2B) was “increased” and the “urinary cGMP generation” value ([2]; FIG. 2C) was “increased”. The “natriuresis (distal tubule sodium reabsorption, urinary sodium excretion)” value ([2]; FIGS. 2D and 2E) was “induced natriuresis”, the “diuretic and natriuretic effects compared with ANP” value [1] was “greater diuretic and natriuretic effects than ANP” and the “glomerular filtration rate (GFR)” value [1, 6] was “increased GFR”. The “mean arterial pressure (MAP)” value [1, 6] was “decreased MAP”, the “glomerular filtration rate (GFR)” value ([1]; infusion of a low dose) was “No change” and the “mean arterial pressure (MAP)” value ([1]; infusion of a low dose) was “No change”. For the same substance, the “effect on renal blood flow compared with ANP” value ([1]; low dose) was “greater effect than low dose ANP”.
With “SLRRSSDformCFGGRMDRIGAQSGLGCNSFRYRITAREDKQGWA (SLRRS[dS]CFGGRMDRIGAQSGLGCNSFRYRITAREDKQGWA; disulfide 7-23 (inferred)) [MANP18, MANP with D-serine at the sixth position]” the “Potency vs. MANP” value ([3]; intracellular cGMP generation, peptide 10^−8 M, HEK293 overexpressing pGC-A) was “=”, the “blood pressure (mean arterial pressure)” value ([4]; 33 pmol peptide/kg/min infused 45 minutes, FIG. 5A) was “blood pressure lowering” and the cardiac output ([4]; 33 pmol peptide/kg/min infused 45 minutes, FIG. 5D) was “cardiac output enhancing”. For the same substance, the “natriuretic action (urinary sodium excretion)” value ([4]; 33 pmol peptide/kg/min infused 45 minutes, FIG. 5G) was “natriuretic actions”, the plasma aldosterone levels ([4]; 33 pmol peptide/kg/min, FIG. 6E) was “temporarily depressed” and the “plasma renin activity (PRA)” value ([4]; 33 pmol peptide/kg/min, FIG. 6F) was “temporarily depressed”. The “plasma angiotensin II levels (ANGII)” value ([4]; 33 pmol peptide/kg/min, FIG. 6G) was “temporarily depressed”, the “cGMP (plasma cGMP levels, urinary cGMP excretion)” value ([4]; 33 pmol peptide/kg/min, FIGS. 6A and 6B) was “activated cGMP” and the “ANP levels (plasma ANP, urinary ANP excretion)” value ([4]; 33 pmol peptide/kg/min, FIGS. 6C and 6D) was “temporarily increased”.
With “SWLRRSSCFGGRMDRI GAQSGLGCNSFRYRITA REDKQGWA (SWLRRSSCFGGRMDRIGAQSGLGCNSFRYRITAREDKQGWA) [MANP2W, MANP variant having a tryptophan substitution for the leucine at position 2 of MANP]” the “pGC-A activation (cGMP generation)” value ([3]; 10^−6 M, 10^−8 M, or 10^−10 M peptide for 10 minutes, FIG. 7A) was “selectively activated pGC-A” and the “pGC-B activation (cGMP generation)” value [5] was “did not activate pGC-B”.
